Source: ChEMBL document CHEMBL1255386, “Early viral kinetics of telbivudine and entecavir: results of a 12-week randomized exploratory study with patients with HBeAg-positive chronic hepatitis B” (Antimicrob Agents Chemother, 2010)

What was measured:
Homo sapiens [1] = organism: Homo sapiens; assay: Toxicity in HBeAg-positive chronic hepatitis B patient assessed as dyspnea at 600 mg/day; format: organism-based; conditions: in vivo
Homo sapiens [2] = organism: Homo sapiens; assay: Toxicity in HBeAg-positive chronic hepatitis B patient assessed as myringitis at 600 mg/day; format: organism-based; conditions: in vivo
Homo sapiens [3] = organism: Homo sapiens; assay: Toxicity in HBeAg-positive chronic hepatitis B patient assessed as vomiting at 600 mg/day; format: organism-based; conditions: in vivo
Homo sapiens [4] = organism: Homo sapiens; assay: Toxicity in HBeAg-positive chronic hepatitis B patient assessed as nasophayngitis at 600 mg/day; format: organism-based; conditions: in vivo
Homo sapiens [5] = organism: Homo sapiens; assay: Toxicity in HBeAg-positive chronic hepatitis B patient assessed as increase in ALT level at 600 mg/day; format: organism-based; conditions: in vivo
Homo sapiens [6] = assay: Toxicity in HBeAg-positive chronic hepatitis B patient assessed as facial edema at 600 mg/day; format: organism-based; conditions: in vivo
Hepatitis B virus [7] = assay: Antiviral activity against Hepatitis B virus in HBeAg-positive chronic hepatitis B patient assessed as mean efficiency factor of blocking virus production at 600 mg/day; format: functional
Homo sapiens [8] = organism: Homo sapiens; assay: Toxicity in HBeAg-positive chronic hepatitis B patient assessed as muscular weakness at 600 mg/day; format: organism-based; conditions: in vivo
Homo sapiens [9] = organism: Homo sapiens; assay: Toxicity in HBeAg-positive chronic hepatitis B patient assessed as peripheral neuropathy at 600 mg/day; format: organism-based; conditions: in vivo
Homo sapiens [10] = organism: Homo sapiens; assay: Toxicity in HBeAg-positive chronic hepatitis B patient assessed as chest discomfort at 600 mg/day; format: organism-based; conditions: in vivo
Homo sapiens [11] = organism: Homo sapiens; assay: Toxicity in HBeAg-positive chronic hepatitis B patient assessed as hyperphosphatemia at 600 mg/day; format: organism-based; conditions: in vivo
Homo sapiens [12] = organism: Homo sapiens; assay: Toxicity in HBeAg-positive chronic hepatitis B patient assessed as neutropenia at 600 mg/day; format: organism-based; conditions: in vivo
Homo sapiens [13] = organism: Homo sapiens; assay: Toxicity in HBeAg-positive chronic hepatitis B patient assessed as abdominal discomfort at 600 mg/day; format: organism-based, Abdomen; conditions: in vivo
Homo sapiens [14] = organism: Homo sapiens; assay: Toxicity in HBeAg-positive chronic hepatitis B patient assessed as vaginal hemorrhage at 600 mg/day; format: organism-based; conditions: in vivo
Homo sapiens [15] = organism: Homo sapiens; assay: Toxicity in HBeAg-positive chronic hepatitis B patient assessed as headache at 600 mg/day; format: organism-based; conditions: in vivo
Homo sapiens [16] = organism: Homo sapiens; assay: Toxicity in HBeAg-positive chronic hepatitis B patient assessed as proteinuria at 600 mg/day; format: organism-based; conditions: in vivo
Homo sapiens [17] = organism: Homo sapiens; assay: Hepatotoxicity in HBeAg-positive chronic hepatitis B patient assessed as reduction in alanine aminotransferase level at 600 mg/day after 12 weeks (reference value: 163.1 IU/liter); format: toxicity, organism-based; conditions: in vivo, 2016 h
Hepatitis B virus [18] = assay: Antiviral activity against Hepatitis B virus in HBeAg-positive chronic hepatitis B patient assessed as mean viral clearance rate at 600 mg/day; format: functional
Homo sapiens [19] = organism: Homo sapiens; assay: Toxicity in HBeAg-positive chronic hepatitis B patient assessed as gingival bleeding at 600 mg/day; format: organism-based; conditions: in vivo
Homo sapiens [20] = organism: Homo sapiens; assay: Toxicity in HBeAg-positive chronic hepatitis B patient assessed as increase in blood CK level at 600 mg/day; format: organism-based; conditions: in vivo
Homo sapiens [21] = organism: Homo sapiens; assay: Toxicity in HBeAg-positive chronic hepatitis B patient assessed as insomnia at 600 mg/day; format: organism-based; conditions: in vivo
Homo sapiens [22] = organism: Homo sapiens; assay: Toxicity in HBeAg-positive chronic hepatitis B patient assessed as hordeolum at 600 mg/day; format: organism-based; conditions: in vivo
Homo sapiens [23] = organism: Homo sapiens; assay: Toxicity in HBeAg-positive chronic hepatitis B patient assessed as upper abdominal pain at 600 mg/day; format: organism-based, Abdomen; conditions: in vivo
Homo sapiens [24] = organism: Homo sapiens; assay: Toxicity in HBeAg-positive chronic hepatitis B patient assessed as myalgia at 600 mg/day; format: organism-based; conditions: in vivo
Homo sapiens [25] = organism: Homo sapiens; assay: Toxicity in HBeAg-positive chronic hepatitis B patient assessed as thrombocytopenia at 600 mg/day; format: organism-based; conditions: in vivo
Homo sapiens [26] = organism: Homo sapiens; assay: Toxicity in HBeAg-positive chronic hepatitis B patient assessed as nausea at 600 mg/day; format: organism-based; conditions: in vivo
Hepatitis B virus [27] = assay: Antiviral activity against Hepatitis B virus in HBeAg-positive chronic hepatitis B patient assessed as HBV DNA level in serum at 0.5 mg/day after 12 weeks (reference value: 9.72 log10copies/ml); format: functional
Homo sapiens [28] = organism: Homo sapiens; assay: Toxicity in HBeAg-positive chronic hepatitis B patient assessed as upper respiratory tract infection at 600 mg/day; format: organism-based; conditions: in vivo
Homo sapiens [29] = organism: Homo sapiens; assay: Toxicity in HBeAg-positive chronic hepatitis B patient assessed as increase in AST level at 600 mg/day; format: organism-based; conditions: in vivo
Hepatitis B virus [30] = assay: Antiviral activity against Hepatitis B virus in HBeAg-positive chronic hepatitis B patient assessed as mean rate of infected cell loss at 600 mg/day; format: functional
Homo sapiens [31] = organism: Homo sapiens; assay: Toxicity in HBeAg-positive chronic hepatitis B patient assessed as conjunctival hypermia at 600 mg/day; format: organism-based, Conjunctiva; conditions: in vivo

Measured: Activity

Cc1cn([C@@H]2C[C@@H](O)[C@H](CO)O2)c(=O)[nH]c1=O [TELBIVUDINE]
6.6: Hepatitis B virus [27]
0.809 day⁻¹: Hepatitis B virus [18]
0%: Homo sapiens [2] | Homo sapiens [3] | Homo sapiens [4] | Homo sapiens [6] | Homo sapiens [14] | Homo sapiens [15] | Homo sapiens [16] | Homo sapiens [20] | Homo sapiens [21] | Homo sapiens [22] | Homo sapiens [26]
99.1%: Hepatitis B virus [7]
108 IU/L: Homo sapiens [17]
3%: Homo sapiens [5]
Non-toxic: Homo sapiens [8] | Homo sapiens [9]
0.075 day⁻¹: Hepatitis B virus [30]
1%: all other assays above
